The numbers were not newly measured in PMC11336009 (GeroScience, 2024), which cites them from elsewhere.

Common to all, as to conditions: cited from earlier work
For series [1], the system named is rat 3-nitropropionic acid (3NP) model. Further details: method as in PMID 31728850.
The subject of the next series is rat rotenone model of PD.
Series [2] concerns diabetic mice after ischemic stroke. Further details: method as in PMID 24821550.

Regarding `N#C[C@@H]1CCCN1C(=O)CNC12CC3CC(CC(O)(C3)C1)C2` [Vildagliptin], the “Effects in striatum of rat 3NP model of late-stage Huntington's disease” value in series [1] is “reduce neuronal degeneration and markers of oxidative stress”. The “Effects in rat rotenone PD model” value in the series with rat rotenone model of PD is “mitigate striatal DA loss, neuroinflammation and motor deficits”.
On to “liraglutide (HAEGTFTSDVSSYLEGQAAKEFIAWLVRGRG; chains of the INN, looked up) [GLP-1R agonist]”, for which the “Effects in rat rotenone model of PD” value with rat rotenone model of PD was “mitigated motor deficits, striatal DA loss, SNc dopaminergic neuronal degeneration and neuroinflammation”.
With `Cn1c(=O)cc(N2CCC[C@@H](N)C2)n(Cc2ccccc2C#N)c1=O` [alogliptin], in the series on rat rotenone model of PD (same effects as described for saxagliptin), the “Effects in rotenone challenged PD rats” value was “do the same”.
In the case of `N#C[C@@H]1C[C@@H]2C[C@@H]2N1C(=O)[C@@H](N)C12CC3CC(CC(O)(C3)C1)C2` [saxagliptin], the “Effects in rat rotenone PD model” value with rat rotenone model of PD is “preserve TH levels within the SNc and mitigate striatal declines in DA and TH levels”.
Consider `CC#CCn1c(N2CCC[C@@H](N)C2)nc2c1c(=O)n(Cc1nc(C)c3ccccc3n1)c(=O)n2C` [linagliptin], for which, in series [2], the “Neural stem cell proliferation after ischemic stroke” value is listed as “augment neural stem cell proliferation”.
